According to patent publication US5663331A, “Cephalosporin compounds” (Il-Dong Pharm. Co., Ltd., priority 1992, dated 1997):
≈ marks a conversion by molar mass, not a printed value.

Assays:
Format in all cases: cell-based
[1] = system: Pseudomonas aeurginosa NCTC 10490; assay: MIC, two-fold dilution method, Pseudomonas aeurginosa NCTC 10490; conditions: 10^6 CFU per ml, 37° C., 18 to 20 hours
How it was run: (§1)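 In vitro antibacterial activity uses a two-fold dilution series in Mueller Hinton Broth. Inoculum density is 10^6 CFU per ml, with incubation at 37° C. for 18 to 20 hours.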

[2] = system: Staphylococcus epidermidis ATCC 12228; assay: MIC, two-fold dilution method, Staphylococcus epidermidis ATCC 12228; conditions: 10^6 CFU per ml, 37° C., 18 to 20 hours
How it was run: as §1

[3] = system: Streptococcus faecalis ATCC 10541; assay: MIC, two-fold dilution method, Streptococcus faecalis ATCC 10541; conditions: 10^6 CFU per ml, 37° C., 18 to 20 hours
How it was run: as §1

[4] = system: Klebsiella pneumoniae ATCC 10031; assay: MIC, two-fold dilution method, Klebsiella pneumoniae ATCC 10031; conditions: 10^6 CFU per ml, 37° C., 18 to 20 hours
How it was run: as §1

[5] = system: Esherichia coli ATCC 25922; assay: MIC, two-fold dilution method, Esherichia coli ATCC 25922; conditions: Muller Hinton Broth, 10^6 CFU per ml, 37° C., 18 to 20 hours
How it was run: as §1

[6] = system: Bacillus subtilis ATCC 6633; assay: MIC, two-fold dilution method, Bacillus subtilis ATCC 6633; conditions: 10^6 CFU per ml, 37° C., 18 to 20 hours
How it was run: as §1

[7] = system: Staphylococcus aureus ATCC 65389; assay: MIC, two-fold dilution method, Staphylococcus aureus ATCC 65389; conditions: 10^6 CFU per ml, 37° C., 18 to 20 hours
How it was run: as §1

Antibacterial Activity (MIC) ([1]; Muller Hinton Broth) [µg/mL] | Antibacterial Activity (MIC) ([2]; Muller Hinton Broth) [µg/mL] | Antibacterial Activity (MIC) ([3]; Muller Hinton Broth) [µg/mL] | Antibacterial Activity (MIC) ([4]; Muller Hinton Broth) [µg/mL] | Antibacterial Activity (MIC) [5] [µg/mL] | Antibacterial Activity (MIC) ([6]; Muller Hinton Broth) [µg/mL] | Antibacterial Activity (MIC) ([7]; Muller Hinton Broth) [µg/mL] | MIC ([1]; NCTC10490, Muller Hinton Broth, read-out: Antibacterial Activity (MIC)) [µg/mL] | MIC ([2]; ATCC12228, Muller Hinton Broth, read-out: Antibacterial Activity (MIC)) [µg/mL] | MIC ([3]; Enterococcus faecalis, ATCC10541, Muller Hinton Broth, read-out: Antibacterial Activity (MIC)) [µg/mL] | MIC ([4]; ATCC10031, Muller Hinton Broth, read-out: Antibacterial Activity (MIC)) [µg/mL] | MIC ([5]; read-out: Antibacterial Activity (MIC)) [µg/mL] | MIC ([6]; ATCC6633, Muller Hinton Broth, read-out: Antibacterial Activity (MIC)) [µg/mL] | MIC ([7]; ATCC65389, Muller Hinton Broth, read-out: Antibacterial Activity (MIC)) [µg/mL] | SMILES
0.78 | 1.56 | 0.2 | 0.78 | 1.56 | 0.78 | 1.56 | – | – | – | – | – | – | – | Cc1cn(-c2cc3c(cc2F)c(SCC2=C(C(=O)[O-])N4C(=O)C(NC(=O)/C(=N\OC(C)(C)C(=O)O)c5csc(N)n5)[C@H]4SC2)cc[n+]3C2CC2)cn1 (some centres unmarked) [Compound I-68, 7-[(Z)-2-(2-aminothiazol-4-yl)-2-(2-carboxyprop-2-oxyimino)acetamido]-3-[1-cyclopropyl-6-fluoro-7-(4-methylimidazolyl)quinolinium-4-yl]thiomethyl-3-cephem-4-carboxylate]
– | – | – | – | – | – | – | 0.78 (≈ 0.976 µM) | 1.56 (≈ 1.95 µM) | 0.78 (≈ 0.976 µM) | 0.39 (≈ 0.488 µM) | 0.78 (≈ 0.976 µM) | 0.39 (≈ 0.488 µM) | 0.78 (≈ 0.976 µM) | CCN1CCN(c2cc3c(cc2F)c(SCC2=C(C(=O)[O-])N4C(=O)C(NC(=O)/C(=N\OC(C)(C)C(=O)O)c5csc(N)n5)C4SC2)cc[n+]3C2CC2)CC1 (centres unmarked) [Compound I-59, 7-[(Z)-2-(2-aminothiazol-4-yl)-2-(2-carboxyprop-2-oxyimino)acetamido]-3-[1-cyclopropyl-6-fluoro-7-(1-ethylpiperazinyl)quinolinium-4-yl]thiomethyl-3-cephem-4-carboxylate]
